Assay results from PMC4583781, “Heteropentanuclear Oxalato-Bridged nd–4f (n=4, 5) Metal Complexes with NO Ligand: Synthesis, Crystal Structures, Aqueous Stability and Antiproliferative Activity” (Chemistry (Weinheim an Der Bergstrasse, Germany), 2015).

Assays:
[1] = test system: DLD-1 colon cancer model; set-up: method as in PMID 16343446, PMID 17445775; details: cited from earlier work
[2] = test system: MRC-5 cells (normal human fetal lung fibroblast); assay: MTT assay, cytotoxicity in noncancerous MRC-5 cells; format: cell-based; details: 48 h treatment, 5000 cells per well, read-out: IC50 MRC-5 (5000 c per w)
Method: (§1) Human cervical carcinoma (HeLa), human alveolar basal adenocarcinoma (A549), and normal human fetal lung fibroblast cell line (MRC-5) were maintained as monolayer culture in the Roswell Park Memorial Institute (RPMI) 1640 nutrient medium (Sigma Chemicals Co, USA). RPMI 1640 nutrient medium was prepared in sterile ionized water, supplemented with penicillin (192 IU mL^−1), streptomycin (200 μg mL^−1), 4-(2-hydroxyethyl)piperazine-1-ethanesulfonic acid (HEPES) (25 mM), L-glutamine (3 mM) and 10 % of heat-inactivated fetal calf serum (FCS; pH 7.2). The cells were grown at 37 °C in 5 % CO2 and humidified air atmosphere, by twice weekly subculture.
(§2) Antiproliferative activity of the ruthenium and osmium complexes was determined using 3-(4,5-dimethylthiazol-yl)-2,5-diphenyltetrazolium bromide (MTT, Sigma–Aldrich) assay.[49] Cells were seeded into 96-well cell culture plates (Thermo Scientific Nunc), at a cell density of 3000 cells per well (HeLa), 7000 cells per well (A549), and 5000 cells per well (MRC-5), in 100 μL of culture medium. After 24 h of growth, cells were exposed to the serial dilutions of the tested complexes. Complexes were dissolved in 1 % DMSO: complex 1 at a concentration of 4 mM, complexes 2–5 at a concentration of 1 mM, complexes 6–9 at a concentration of 0.6 mM, as stocks immediately prior use, and afterwards diluted with nutrient medium to desired final concentrations (in range up to 200 μM). Each concentration was tested in triplicate. After incubation periods of 48 h, 20 μL of MTT solutions (5 mg mL^−1 in phosphate buffer solution, pH 7.2) were added to each well. Samples were incubated for 4 h at 37 °C, with 5 % CO2 in a humidified atmosphere. Formazan crystals were dissolved in 100 μL of 10 % sodium dodecyl sulfate (SDS). Absorbances were recorded after 24 h, on an ELISA reader (ThermoLabsystems Multiskan EX 200–240 V), at the wavelength of 570 nm. The IC50 values, defined as the concentrations of the compound causing 50 % cell growth inhibition, were estimated from the dose-response curves.
(§3) The antiproliferative activity of the ruthenium and osmium lanthanide complexes 1–9 was evaluated for 48 h of continuous drug action, using colorimetric MTT assay. The study was performed in two human neoplastic cell lines (HeLa, A549), and human fetal lung fibroblast cell line (MRC-5), which was used as noncancerous model for in vitro toxicity evaluation. The results are shown in Table 5 in terms of IC50 values for 48 h incubation period. IC50 values are calculated as mean values obtained from two to three independent experiments and are presented with their standard deviations.

[3] = test system: A549 cells (human alveolar basal adenocarcinoma); assay: MTT assay, antiproliferative activity in A549 cells; format: cell-based; details: 48 h treatment, 7000 cells per well, read-out: IC50 A549 (7000 c per w)
Method: as §1, §2, §3

[4] = test system: HeLa cells (human cervical carcinoma); assay: MTT assay, antiproliferative activity in HeLa cells; format: cell-based; details: 48 h treatment, 3000 cells per well, read-out: IC50 HeLa (3000 c per w)
Method: as §1, §2, §3

[5] = Stability in aqueous solution by UV/Vis spectroscopy; format: physicochemical; details: UV/Vis spectroscopy over 96 h
Method: Elemental analyses were performed by the microanalytical service of the Faculty of Chemistry of the University of Vienna on a Perkin–Elmer 2400 CHN Elemental Analyzer. UV/Vis spectra were recorded at 25 °C using a Perkin–Elmer Lambda 650 spectrometer equipped with an optical cell of 1 cm path-length in the wavelength range of 200 to 800 nm in combination with a Perkin–Elmer PTP-6 Peltier System. Electrospray ionization (ESI) mass spectrometry measurements were conducted on a Bruker HCT ion trap (Bruker Daltonics GmbH) by using methanol as a solvent. MIR spectra were recorded on a Perkin–Elmer 370 FTIR 2000 instrument using an ATR (attenuated total reflection) unit in the range of 4000–400 cm^−1. Phosphorescence emission spectra were recorded with a Horiba FluoroMax-4 spectrofluorimeter and the data were processed using the FluorEssence v3.5 software package.
The stability of the heteropentanuclear complexes 5 and 9 in aqueous solution has been investigated by UV/Vis spectroscopy over 96 h.

[6] = Stability of pentanuclear assembly in aqueous solution, IR comparison of residue; format: physicochemical; details: aqueous solution evaporated to dryness after standing 24 h in air
Method: To exclude immediate dissociation of the pentanuclear assembly with release of a metal–oxalate fragment an aqueous solution of 5 was evaporated to dryness after standing for 24 h in air and the IR spectra of the residue and freshly prepared compound 5 were compared.

[7] = test system: A549 cells; assay: Total intracellular Ru/Os accumulation by ICP-MS; format: cell-based, human; details: 6 and 24 h, 0.5×IC50 of complexes 4 and 8, ICP-MS, Ru (4) relative to Os (8)
[8] = test system: cellular proteins of A549 cells; assay: Ru/Os binding to cellular proteins by ICP-MS; format: cell-based, human; details: 24 h versus 6 h, 0.5×IC50, ICP-MS
[9] = test system: cellular DNA of A549 cells; assay: Ru/Os binding to cellular DNA by ICP-MS; format: cell-based, human; details: 6 h treatment, 0.5×IC50, ICP-MS

Molecule	Efficacy against DLD-1 colon cancer model in vivo [1]	IC50 [2]	IC50 [3]	IC50 [4]	Stability in aqueous solution (change of optical spectra) [5]	IR spectra of residue versus freshly prepared compound [6]	Total intracellular accumulation of ruthenium versus osmium [7]	Change of metal-protein binding with treatment prolongation [8]	Metal (Ru/Os) bound to cellular DNA [9]
N#C[S-].N#C[S-].N#C[S-].[La+3].c1cnc2c(c1)ccc1cccnc12.c1cnc2c(c1)ccc1cccnc12.c1cnc2c(c1)ccc1cccnc12 [La(phen)3(NCS)3]	highly effective								
(nBu4N)2[RuCl3(ox)(NO)] [complex 1]		18.1 ± 6.5 µM	55 ± 1.6 µM	55.9 ± 5.6 µM					
(nBu4N)5[Dy(EtOH){RuCl3(μ-ox)(NO)}4] [complex 5]		13.2 ± 0.4 µM	47 ± 6.7 µM	20 ± 2.1 µM	no change in the optical spectra observed	no differences in the spectra observed			
(nBu4N)5[Gd(EtOH){RuCl3(μ-ox)(NO)}4] [complex 3]		11.1 ± 0.1 µM	26.5 ± 4 µM	29.1 ± 0.8 µM					
(nBu4N)5[Tb(EtOH){RuCl3(μ-ox)(NO)4}] [complex 4]		11.9 ± 0.4 µM	22.4 ± 3.1 µM	20 ± 2.4 µM			five- to eightfold greater	increased to a great extent	63.4(±1.8) pg metal μg^−1 DNA
(nBu4N)5[Y{OsCl3(μ-ox)(NO)}4] [complex 6]		115 ± 10.7 µM	> 200 µM	152 ± 24 µM					
(nBu4N)5[Y{RuCl3(μ-ox)(NO)}4] [complex 2]		12 ± 0.3 µM	56.3 ± 1.1 µM	17.9 ± 0.4 µM					
